From PMC7835349 (Communications Biology, 2021)
Values joined by “and” are separate entries in the source; they are usually repeats but may differ in a detail not shown here. Equal entries are not always repeated. “Also recorded” adds a separate entry of the source.

Experiments:
telemetered rats = experiment: Conscious rat telemetry (QRS amplitude, blood pressure, tolerability); conditions: telemetered rat; AZD4320 10 mg/kg, conjugates 30 mg/kg IV;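 also: male Han Wistar rats carrying implanted telemetry transmitters, with ECG and arterial pressure recorded continuously while unrestrained in their home cage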
Description: Male Han Wistar rats were implanted with HD‐S11 transmitters (Data Sciences International, St. Paul, MN USA) under isoflurane anaesthesia, the telemetry transmitter was placed in the peritoneal cavity, the arterial blood pressure catheter was placed in the terminal abdominal aorta and the ECG electrodes were sutured, one at the dorsal surface of the xiphoid process and one at the anterior mediastinum, close to the right atrium[42]. Animals were allowed to recover for at least 2 weeks and were around 2–3 months at the time of experimentation. The animals were pair‐housed in standard rat cages with a non‐instrumented companion throughout the study. Cages were prepared with bedding material and enrichment.
Telemetry recordings took place in the home cage. […] The animals were removed from the cage temporarily for dosing and blood sampling. Animals were not subject to restraint except where dosing and blood sampling was performed. Data acquisition used Dataquest Open A.R.T.™ with HEM software version 4.2 (Notocord Inc).
For evaluation of AZD4320, n = 8 rats received single doses of 0 (vehicle: 30% Kleptose, pH9) or 10 mg/kg AZD4320, administered as a 30-min intravenous infusion. A cross-over study design was used, with an interval of 7 days between treatments.
Data for all parameters were collected continuously during the recording period. The continuous data from each animal was binned into chosen time intervals of varying length and averaged to generate a single data point for each reported nominal time. Each reported nominal timepoint was then averaged across each of the animals tested for each dose level.

RS4;11 xenograft = experiment: RS4;11 mouse xenograft efficacy (tumour volume); type: in vivo, C.B-17 SCID mouse; design: key to tumour volume, individual animals: tumour volume in mm³, length × width²/0.52; conditions: for tumour volume, individual animals: 20 mg/kg AZD4320
Procedure: Female C.B.−17 SCID mice were purchased from Charles River Laboratories. Mice were 5–8 weeks old at the time of tumour implantation. All xenograft studies were conducted at our Association for the Assessment and Accreditation of Laboratory Animal Care accredited facility in Waltham, MA in accordance with ethical regulations described in the guidelines established by the internal Institutional Animal Care and Use Committee. The dendrimer conjugates were formulated in citrate/phosphate buffer pH 5.0, diluted 1:10 with 5% glucose containing 1% w/v Kolliphor HS15, and AZD4320 was formulated in 30% HP-β-CD and dosed as a weekly intravenous (IV) administration at a volume of 5 ml/kg at the indicated doses. Five million RS4;11, five million SUDHL-4 or five million OCI-LY-10 cells were injected subcutaneously in the right flank of mice in a volume of 0.1 ml. Tumour volumes (measured by caliper), animal body weight, and tumor condition were recorded twice weekly for the duration of the study. The tumour volume was calculated (taking length to be the longest diameter across the tumour and width to be the corresponding perpendicular diameter) using the formula: length (mm) x width (mm)^2/0.52. For efficacy studies, mice were randomized based on tumour volumes using stratified sampling and enrolled into control and treatment groups. Tumour growth inhibition from the start of treatment was quantified by measuring the difference in tumour volume between control and treated groups. Survival analysis was evaluated using Mantel-Cox test. Tumours were also taken for bioanalysis.

cleaved caspase-3 (CC3) = experiment: Cleaved caspase-3 in RS4;11 tumours by MSD ELISA; type: in vivo, C.B-17 SCID mouse
Procedure: Tumours were excised, snap frozen in liquid nitrogen and stored at –80 °C. Tumours were homogenised in lysis buffer containing protease and phosphatase inhibitors, protein concentration determined by Pierce BCA Protein Assay Kit and diluted in lysis buffer to a protein concentration of 0.4 μg/μL. Cleaved caspase-3 (CC3) was measured using the mesoscale cleaved caspase-3 (Asp175) assay whole cell lysate kit according to manufacturer’s instructions. Induction of CC3 was expressed as fold change of treated tumours over vehicle control.

AZD4320-MIDA-PEG2100 [AZD0466]
effect on QRS amplitude (telemetered rats): no effect on QRS amplitude; also recorded: no reduction in QRS amplitude; also recorded: negligible effect on QRS amplitude
tumour volume, individual animals (RS4;11 xenograft; Day 38, listed as SPL-8977, 20 mg/kg, in mm³ (unit assumed)): 600 and 609 and 679 and 641
tumour volume, individual animals (RS4;11 xenograft; Day 41, listed as SPL-8977, 20 mg/kg, in mm³ (unit assumed)): 419 and 480 and 364 and 544
tumour volume, individual animals (RS4;11 xenograft; Day 45, listed as SPL-8977, 20 mg/kg): 0 (2×) and 133 and 130
tumour volume, individual animals (RS4;11 xenograft; Day 48, listed as SPL-8977, 20 mg/kg): 0 (3×) and 75
tumour volume, individual animals (RS4;11 xenograft; Day 52, listed as SPL-8977, 20 mg/kg): 0 (3×) and 134
tumour volume, individual animals (RS4;11 xenograft; Day 55, in mm³ (unit assumed)): 0
tumour volume, individual animals (RS4;11 xenograft; Day 59, listed as SPL-8977, 20 mg/kg): 0 (2×) and 122 and 66
tumour volume, individual animals (RS4;11 xenograft; Day 63, listed as SPL-8977, 20 mg/kg, in mm³ (unit assumed)): 275 and 244 and 0 and 343
tumour volume, individual animals (RS4;11 xenograft; Day 66, listed as SPL-8977, 20 mg/kg, in mm³ (unit assumed)): 255 and 188 and 196 and 333
tumour volume, individual animals (RS4;11 xenograft; Day 69, listed as SPL-8977, 20 mg/kg, in mm³ (unit assumed)): 384 and 259 and 193 and 637
tumour volume, individual animals (RS4;11 xenograft; Day 73, listed as SPL-8977, 20 mg/kg, in mm³ (unit assumed)): 574 and 450 and 240 and 837
AZD4320-equivalent dose of dendrimer conjugate needed to match efficacy of AZD4320 (RS4;11 xenograft; RS4;11): approximately twice the dose
magnitude of in vivo efficacy (RS4;11 xenograft; RS4;11, 20 mg/kg AZD4320 equivalent dose vs SPL-8932 20 mg/kg equivalent and AZD4320 10 mg/kg): comparable to that of SPL-8932 and AZD4320
Tumour volume, Geo Mean (RS4;11 xenograft; RS4;11, AZD0466 10 mg/kg (3mg/kg AZD4320), day 41): 492.913
Tumour volume, Geo Mean (RS4;11 xenograft; RS4;11, AZD0466 10 mg/kg (3mg/kg AZD4320), day 44): 317.328
Tumour volume, Geo Mean (RS4;11 xenograft; RS4;11, AZD0466 10 mg/kg (3mg/kg AZD4320), day 48): 5.078
Tumour volume, Geo Mean (RS4;11 xenograft; RS4;11, AZD0466 10 mg/kg (3mg/kg AZD4320), day 51): 2.414
Tumour volume, Geo Mean (RS4;11 xenograft; RS4;11, AZD0466 10 mg/kg (3mg/kg AZD4320), day 55): 1
Tumour volume, Geo Mean (RS4;11 xenograft; RS4;11, AZD0466 10 mg/kg (3mg/kg AZD4320), day 58): 49.5834
Tumour volume, Geo Mean (RS4;11 xenograft; RS4;11, AZD0466 10 mg/kg (3mg/kg AZD4320), day 63): 177.592
Tumour volume, Geo Mean (RS4;11 xenograft; RS4;11, AZD0466 10 mg/kg (3mg/kg AZD4320), day 66): 258.58
Tumour volume, Geo Mean (RS4;11 xenograft; RS4;11, AZD0466 10 mg/kg (3mg/kg AZD4320), day 70): 353.377
Tumour volume, Geo Mean (RS4;11 xenograft; RS4;11, AZD0466 10 mg/kg (3mg/kg AZD4320), day 73): 450.085
Tumour volume, Geo Mean (RS4;11 xenograft; RS4;11, AZD0466 10 mg/kg (3mg/kg AZD4320), day 77): 770.449
Tumour volume, Geo Mean (RS4;11 xenograft; RS4;11, AZD0466 10 mg/kg (3mg/kg AZD4320), day 80): 703.796
Tumour volume, Geo Mean (RS4;11 xenograft; RS4;11, AZD0466 10 mg/kg (3mg/kg AZD4320), day 83): 919.497
Tumour volume, Geo Mean (RS4;11 xenograft; RS4;11, AZD0466 34 mg/kg (10mg/kg AZD4320), day 41): 491.258
Tumour volume, Geo Mean (RS4;11 xenograft; RS4;11, AZD0466 34 mg/kg (10mg/kg AZD4320), day 44): 242.554
Tumour volume, Geo Mean (RS4;11 xenograft; RS4;11, AZD0466 34 mg/kg (10mg/kg AZD4320), day 48): 1.95
Tumour volume, Geo Mean (RS4;11 xenograft; RS4;11, AZD0466 34 mg/kg (10mg/kg AZD4320), day 51): 1
Tumour volume, Geo Mean (RS4;11 xenograft; RS4;11, AZD0466 34 mg/kg (10mg/kg AZD4320), day 55): 1
Tumour volume, Geo Mean (RS4;11 xenograft; RS4;11, AZD0466 34 mg/kg (10mg/kg AZD4320), day 58): 1
Tumour volume, Geo Mean (RS4;11 xenograft; RS4;11, AZD0466 34 mg/kg (10mg/kg AZD4320), day 63): 24.9155
Tumour volume, Geo Mean (RS4;11 xenograft; RS4;11, AZD0466 34 mg/kg (10mg/kg AZD4320), day 66): 88.4785
Tumour volume, Geo Mean (RS4;11 xenograft; RS4;11, AZD0466 34 mg/kg (10mg/kg AZD4320), day 70): 55.1235
Tumour volume, Geo Mean (RS4;11 xenograft; RS4;11, AZD0466 34 mg/kg (10mg/kg AZD4320), day 73): 52.3606
Tumour volume, Geo Mean (RS4;11 xenograft; RS4;11, AZD0466 34 mg/kg (10mg/kg AZD4320), day 77): 71.4432
Tumour volume, Geo Mean (RS4;11 xenograft; RS4;11, AZD0466 34 mg/kg (10mg/kg AZD4320), day 80): 194.327
Tumour volume, Geo Mean (RS4;11 xenograft; RS4;11, AZD0466 34 mg/kg (10mg/kg AZD4320), day 83): 206.49
Tumour volume, Geo Mean (RS4;11 xenograft; RS4;11, AZD0466 103 mg/kg (30mg/kg AZD4320), day 41): 495.68
Tumour volume, Geo Mean (RS4;11 xenograft; RS4;11, AZD0466 103 mg/kg (30mg/kg AZD4320), day 44): 271.066
Tumour volume, Geo Mean (RS4;11 xenograft; RS4;11, AZD0466 103 mg/kg (30mg/kg AZD4320), day 48): 1.967
Tumour volume, Geo Mean (RS4;11 xenograft; RS4;11, AZD0466 103 mg/kg (30mg/kg AZD4320), day 51): 1
Tumour volume, Geo Mean (RS4;11 xenograft; RS4;11, AZD0466 103 mg/kg (30mg/kg AZD4320), day 55): 1
Tumour volume, Geo Mean (RS4;11 xenograft; RS4;11, AZD0466 103 mg/kg (30mg/kg AZD4320), day 58): 1
Tumour volume, Geo Mean (RS4;11 xenograft; RS4;11, AZD0466 103 mg/kg (30mg/kg AZD4320), day 63): 5.6048
Tumour volume, Geo Mean (RS4;11 xenograft; RS4;11, AZD0466 103 mg/kg (30mg/kg AZD4320), day 66): 13.7221
Tumour volume, Geo Mean (RS4;11 xenograft; RS4;11, AZD0466 103 mg/kg (30mg/kg AZD4320), day 70): 40.3244
Tumour volume, Geo Mean (RS4;11 xenograft; RS4;11, AZD0466 103 mg/kg (30mg/kg AZD4320), day 73): 44.9682
Tumour volume, Geo Mean (RS4;11 xenograft; RS4;11, AZD0466 103 mg/kg (30mg/kg AZD4320), day 77): 64.9706
Tumour volume, Geo Mean (RS4;11 xenograft; RS4;11, AZD0466 103 mg/kg (30mg/kg AZD4320), day 80): 64.3873
Tumour volume, Geo Mean (RS4;11 xenograft; RS4;11, AZD0466 103 mg/kg (30mg/kg AZD4320), day 83): 200.25
animals remaining tumour free for up to 6 weeks (RS4;11 xenograft; RS4;11, highest dose (30 mg/kg AZD4320-equivalent)): 2/6
regression during treatment period (RS4;11 xenograft; RS4;11, weekly IV, 10 mg/kg and 30 mg/kg AZD4320-equivalent): Complete tumour regression
tumour regression (RS4;11 xenograft; RS4;11, weekly IV, 3, 10 and 30 mg/kg AZD4320-equivalent dose, each dose group): tumour regression in all 6 mice
CC3 PD fold over vehicle, individual tumours (cleaved caspase-3 (CC3); RS4;11, single dose AZD0466 34 mg/kg (10mg/kg AZD4320), 3 hr): 1.1 fold over vehicle (2×) and 0.9 fold over vehicle
CC3 PD fold over vehicle, individual tumours (cleaved caspase-3 (CC3); RS4;11, single dose AZD0466 34 mg/kg (10mg/kg AZD4320), 8 hr): 1.1 fold over vehicle and 1.5 fold over vehicle and 1 fold over vehicle
CC3 PD fold over vehicle, individual tumours (cleaved caspase-3 (CC3); RS4;11, single dose AZD0466 34 mg/kg (10mg/kg AZD4320), 24 hr): 12.2 fold over vehicle and 4.6 fold over vehicle and 5.3 fold over vehicle
CC3 PD fold over vehicle, individual tumours (cleaved caspase-3 (CC3); RS4;11, single dose AZD0466 34 mg/kg (10mg/kg AZD4320), 48 hr): 8.7 fold over vehicle and 9 fold over vehicle and 11 fold over vehicle
CC3 PD fold over vehicle, individual tumours (cleaved caspase-3 (CC3); RS4;11, single dose AZD0466 34 mg/kg (10mg/kg AZD4320), 72 hr): 1.8 fold over vehicle and 1.4 fold over vehicle and 2.1 fold over vehicle
CC3 PD fold over vehicle, individual tumours (cleaved caspase-3 (CC3); RS4;11, single dose AZD0466 103 mg/kg (30mg/kg AZD4320), 3 hr): 6.8855 fold over vehicle and 4.506 fold over vehicle and 6.287 fold over vehicle
CC3 PD fold over vehicle, individual tumours (cleaved caspase-3 (CC3); RS4;11, single dose AZD0466 103 mg/kg (30mg/kg AZD4320), 8 hr): 52.0454 fold over vehicle and 56.5349 fold over vehicle and 45.3617 fold over vehicle
CC3 PD fold over vehicle, individual tumours (cleaved caspase-3 (CC3); RS4;11, single dose AZD0466 103 mg/kg (30mg/kg AZD4320), 24 hr): 82.2669 fold over vehicle and 79.7603 fold over vehicle and 78.3412 fold over vehicle
CC3 PD fold over vehicle, individual tumours (cleaved caspase-3 (CC3); RS4;11, single dose AZD0466 103 mg/kg (30mg/kg AZD4320), 48 hr): 33.7478 fold over vehicle and 42.9825 fold over vehicle and 23.216 fold over vehicle
CC3 PD fold over vehicle, individual tumours (cleaved caspase-3 (CC3); RS4;11, single dose AZD0466 103 mg/kg (30mg/kg AZD4320), 72 hr): 7.7976 fold over vehicle and 4.512 fold over vehicle and 6.025 fold over vehicle
